{"source": "ChEMBL document CHEMBL1201862", "about": "“PubChem BioAssay data set” (2004)", "key": {"[1]": {"molecular_target": "T1, Alkaline phosphatase, tissue-nonspecific isozyme (Homo sapiens, UniProt P05186)", "T1 sequence (P05186 whole entry)": "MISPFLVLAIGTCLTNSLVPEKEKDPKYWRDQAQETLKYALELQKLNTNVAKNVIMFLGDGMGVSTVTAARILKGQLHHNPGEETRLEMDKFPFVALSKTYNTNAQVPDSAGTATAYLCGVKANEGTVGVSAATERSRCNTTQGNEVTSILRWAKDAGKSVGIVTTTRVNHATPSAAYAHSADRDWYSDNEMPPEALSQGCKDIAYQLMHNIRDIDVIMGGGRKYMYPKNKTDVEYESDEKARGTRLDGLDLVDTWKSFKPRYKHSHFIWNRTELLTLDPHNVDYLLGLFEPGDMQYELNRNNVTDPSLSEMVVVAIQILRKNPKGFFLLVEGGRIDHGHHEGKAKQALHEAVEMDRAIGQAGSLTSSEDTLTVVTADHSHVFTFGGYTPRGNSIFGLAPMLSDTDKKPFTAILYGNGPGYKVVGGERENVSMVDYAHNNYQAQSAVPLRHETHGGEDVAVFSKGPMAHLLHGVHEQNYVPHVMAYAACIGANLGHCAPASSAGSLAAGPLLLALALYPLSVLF"}, "[2]": {"experiment": "HPDE-C7 pancreatic duct cell viability loss – fluorescence, HTS (AID 430)", "assay_type": "functional, cell-based", "details": "Homo sapiens"}, "[3]": {"experiment": "viability loss of HPDE-C7K cells – cell-based, fluorescence, HTS, primary screen (AID 431)", "assay_type": "functional", "details": "Homo sapiens"}, "[4]": {"molecular_target": "T2, Replicative DNA helicase DnaB (Mycobacterium tuberculosis, UniProt P9WMR3)", "T2 sequence (P9WMR3 whole entry)": "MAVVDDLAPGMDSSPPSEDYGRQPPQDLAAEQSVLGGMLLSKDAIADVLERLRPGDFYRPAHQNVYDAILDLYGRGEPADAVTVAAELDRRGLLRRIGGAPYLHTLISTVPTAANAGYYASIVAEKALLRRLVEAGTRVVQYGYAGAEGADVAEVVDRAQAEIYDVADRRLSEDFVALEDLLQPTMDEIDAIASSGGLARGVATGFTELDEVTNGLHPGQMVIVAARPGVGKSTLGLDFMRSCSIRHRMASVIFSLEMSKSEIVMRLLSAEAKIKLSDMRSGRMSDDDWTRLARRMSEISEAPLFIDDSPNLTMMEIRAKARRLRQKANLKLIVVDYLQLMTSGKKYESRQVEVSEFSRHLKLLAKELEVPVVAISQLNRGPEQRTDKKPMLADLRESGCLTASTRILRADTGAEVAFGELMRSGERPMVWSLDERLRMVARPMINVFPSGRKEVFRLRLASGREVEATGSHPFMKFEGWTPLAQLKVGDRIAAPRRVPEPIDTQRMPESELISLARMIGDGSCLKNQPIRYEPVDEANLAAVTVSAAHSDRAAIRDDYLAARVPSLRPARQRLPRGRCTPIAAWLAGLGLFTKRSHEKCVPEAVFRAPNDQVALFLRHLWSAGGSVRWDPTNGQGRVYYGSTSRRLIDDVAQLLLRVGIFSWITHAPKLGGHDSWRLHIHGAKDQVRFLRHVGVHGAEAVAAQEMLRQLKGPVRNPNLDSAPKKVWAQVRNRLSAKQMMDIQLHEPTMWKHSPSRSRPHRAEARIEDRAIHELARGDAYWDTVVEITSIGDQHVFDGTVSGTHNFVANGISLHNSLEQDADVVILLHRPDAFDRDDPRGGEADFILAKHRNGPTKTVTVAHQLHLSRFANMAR", "experiment": "DnaB intein splicing inhibitors, dose response, biochemical, cell-free fluorescence (AID 449749)", "assay_type": "functional"}, "[5]": {"molecular_target": "Heat shock protein HSP 90-alpha (Homo sapiens, UniProt P07900)", "assay_type": "functional, organism-based"}, "Protein RecA": {"molecular_target": "T3, Protein RecA (Mycobacterium tuberculosis, UniProt P9WHJ3)", "T3 sequence (P9WHJ3 whole entry)": "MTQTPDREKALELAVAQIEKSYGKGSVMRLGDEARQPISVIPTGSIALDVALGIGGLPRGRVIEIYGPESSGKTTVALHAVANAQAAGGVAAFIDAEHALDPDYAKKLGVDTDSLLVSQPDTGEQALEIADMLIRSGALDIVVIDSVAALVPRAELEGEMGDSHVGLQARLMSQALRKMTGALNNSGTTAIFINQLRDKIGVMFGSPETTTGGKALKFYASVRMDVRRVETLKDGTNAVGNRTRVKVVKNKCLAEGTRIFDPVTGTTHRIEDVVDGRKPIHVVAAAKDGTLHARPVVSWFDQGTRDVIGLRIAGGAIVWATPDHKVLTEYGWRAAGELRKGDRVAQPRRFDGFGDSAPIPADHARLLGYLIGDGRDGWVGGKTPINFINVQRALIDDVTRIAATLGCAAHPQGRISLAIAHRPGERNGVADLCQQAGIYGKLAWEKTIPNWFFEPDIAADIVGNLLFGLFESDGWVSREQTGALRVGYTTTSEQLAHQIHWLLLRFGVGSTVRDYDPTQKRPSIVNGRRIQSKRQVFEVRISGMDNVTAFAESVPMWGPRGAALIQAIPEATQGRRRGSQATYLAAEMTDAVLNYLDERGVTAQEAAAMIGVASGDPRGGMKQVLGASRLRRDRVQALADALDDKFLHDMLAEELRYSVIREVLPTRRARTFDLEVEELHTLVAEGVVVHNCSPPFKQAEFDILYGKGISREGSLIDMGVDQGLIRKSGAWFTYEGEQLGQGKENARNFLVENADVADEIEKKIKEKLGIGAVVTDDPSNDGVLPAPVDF", "experiment": "Fluorescence Cell-Free Homogeneous Dose Retest to Identify Inhibitors of RecA-Intein Splicing Activity. [Related pubchem assays (depositor defined):AID2097, AID2223, AID489010, AID492950]", "assay_type": "functional"}, "[6]": {"experiment": "glucagon-like peptide-1 release potency in STC-1, concentration-response, half-maximal inhibitory concentration in the STC-1 line (AID 1117345)", "assay_type": "functional, cell-based"}, "[7]": {"experiment": "Potency on glucagon-like peptide 1 release, dose-response in NCI-H716 cell line, half maximal inhibitory concentration (AID 1117344)", "assay_type": "functional, cell-based"}, "[8]": {"molecular_target": "T4, Neuropeptides B/W receptor type 1 (Homo sapiens, UniProt P48145)", "T4 sequence (P48145 whole entry)": "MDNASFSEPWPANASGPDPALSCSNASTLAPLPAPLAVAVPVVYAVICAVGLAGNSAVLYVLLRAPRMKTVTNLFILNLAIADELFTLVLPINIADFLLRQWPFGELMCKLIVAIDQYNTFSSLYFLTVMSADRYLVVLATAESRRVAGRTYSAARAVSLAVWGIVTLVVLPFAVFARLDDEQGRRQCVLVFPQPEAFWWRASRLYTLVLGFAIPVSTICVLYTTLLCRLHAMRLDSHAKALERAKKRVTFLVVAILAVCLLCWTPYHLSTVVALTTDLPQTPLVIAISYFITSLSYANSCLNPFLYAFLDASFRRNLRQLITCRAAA", "experiment": "Fluorescence-based dose response cell-based high throughput screening assay to identify antagonists of the G-protein coupled receptor 7 (GPR7). [Related pubchem assays: 1952 (Screening assay (GPR7 antagonists).), 1880 (Summary AID.)]", "assay_type": "functional"}, "[9]": {"molecular_target": "Melanin-concentrating hormone receptor 1 (Homo sapiens, UniProt Q99705)", "sequence (Q99705 whole entry)": "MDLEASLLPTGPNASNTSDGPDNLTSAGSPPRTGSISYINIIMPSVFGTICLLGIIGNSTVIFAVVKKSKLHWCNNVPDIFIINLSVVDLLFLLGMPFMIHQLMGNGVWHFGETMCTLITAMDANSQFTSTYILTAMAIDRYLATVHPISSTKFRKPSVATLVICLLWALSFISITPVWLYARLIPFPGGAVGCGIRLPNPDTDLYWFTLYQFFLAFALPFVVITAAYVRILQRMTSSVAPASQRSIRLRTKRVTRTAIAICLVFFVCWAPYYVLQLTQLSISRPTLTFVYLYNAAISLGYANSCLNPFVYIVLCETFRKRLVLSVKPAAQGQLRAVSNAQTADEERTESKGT", "experiment": "Fluorescence-based counterscreen for antagonists of the G-protein coupled receptor 7 (GPR7): cell-based high throughput dose response assay to identify antagonists of the melanin-concentrating hormone receptor 1 (MCHR1).", "assay_type": "functional"}, "[10]": {"experiment": "luciferase reporter signal suppression in cells – H4 neuroglioma cells, luminescence, dose response (AID 1990)", "assay_type": "functional, cell-based"}, "[11]": {"experiment": "Luminescence Cell-Based Dose Response HTS to Identify Inhibitors of 5'UTR Stem-Loop Driven Prion Protein mRNA Translation in H4 Neuroglioblastoma Cells. [Related pubchem assays: 1827 (Project Summary), 1813 (Primary HTS)]", "assay_type": "functional"}, "[12]": {"experiment": "alpha-synuclein stem-loop luciferase translation blockers – H4 neuroglioma cells, luminescence, confirmation (AID 1988)", "assay_type": "functional, cell-based"}, "[13]": {"molecular_target": "Voltage-dependent T-type calcium channel subunit alpha-1H (Homo sapiens, UniProt O95180)", "sequence (O95180 whole entry)": "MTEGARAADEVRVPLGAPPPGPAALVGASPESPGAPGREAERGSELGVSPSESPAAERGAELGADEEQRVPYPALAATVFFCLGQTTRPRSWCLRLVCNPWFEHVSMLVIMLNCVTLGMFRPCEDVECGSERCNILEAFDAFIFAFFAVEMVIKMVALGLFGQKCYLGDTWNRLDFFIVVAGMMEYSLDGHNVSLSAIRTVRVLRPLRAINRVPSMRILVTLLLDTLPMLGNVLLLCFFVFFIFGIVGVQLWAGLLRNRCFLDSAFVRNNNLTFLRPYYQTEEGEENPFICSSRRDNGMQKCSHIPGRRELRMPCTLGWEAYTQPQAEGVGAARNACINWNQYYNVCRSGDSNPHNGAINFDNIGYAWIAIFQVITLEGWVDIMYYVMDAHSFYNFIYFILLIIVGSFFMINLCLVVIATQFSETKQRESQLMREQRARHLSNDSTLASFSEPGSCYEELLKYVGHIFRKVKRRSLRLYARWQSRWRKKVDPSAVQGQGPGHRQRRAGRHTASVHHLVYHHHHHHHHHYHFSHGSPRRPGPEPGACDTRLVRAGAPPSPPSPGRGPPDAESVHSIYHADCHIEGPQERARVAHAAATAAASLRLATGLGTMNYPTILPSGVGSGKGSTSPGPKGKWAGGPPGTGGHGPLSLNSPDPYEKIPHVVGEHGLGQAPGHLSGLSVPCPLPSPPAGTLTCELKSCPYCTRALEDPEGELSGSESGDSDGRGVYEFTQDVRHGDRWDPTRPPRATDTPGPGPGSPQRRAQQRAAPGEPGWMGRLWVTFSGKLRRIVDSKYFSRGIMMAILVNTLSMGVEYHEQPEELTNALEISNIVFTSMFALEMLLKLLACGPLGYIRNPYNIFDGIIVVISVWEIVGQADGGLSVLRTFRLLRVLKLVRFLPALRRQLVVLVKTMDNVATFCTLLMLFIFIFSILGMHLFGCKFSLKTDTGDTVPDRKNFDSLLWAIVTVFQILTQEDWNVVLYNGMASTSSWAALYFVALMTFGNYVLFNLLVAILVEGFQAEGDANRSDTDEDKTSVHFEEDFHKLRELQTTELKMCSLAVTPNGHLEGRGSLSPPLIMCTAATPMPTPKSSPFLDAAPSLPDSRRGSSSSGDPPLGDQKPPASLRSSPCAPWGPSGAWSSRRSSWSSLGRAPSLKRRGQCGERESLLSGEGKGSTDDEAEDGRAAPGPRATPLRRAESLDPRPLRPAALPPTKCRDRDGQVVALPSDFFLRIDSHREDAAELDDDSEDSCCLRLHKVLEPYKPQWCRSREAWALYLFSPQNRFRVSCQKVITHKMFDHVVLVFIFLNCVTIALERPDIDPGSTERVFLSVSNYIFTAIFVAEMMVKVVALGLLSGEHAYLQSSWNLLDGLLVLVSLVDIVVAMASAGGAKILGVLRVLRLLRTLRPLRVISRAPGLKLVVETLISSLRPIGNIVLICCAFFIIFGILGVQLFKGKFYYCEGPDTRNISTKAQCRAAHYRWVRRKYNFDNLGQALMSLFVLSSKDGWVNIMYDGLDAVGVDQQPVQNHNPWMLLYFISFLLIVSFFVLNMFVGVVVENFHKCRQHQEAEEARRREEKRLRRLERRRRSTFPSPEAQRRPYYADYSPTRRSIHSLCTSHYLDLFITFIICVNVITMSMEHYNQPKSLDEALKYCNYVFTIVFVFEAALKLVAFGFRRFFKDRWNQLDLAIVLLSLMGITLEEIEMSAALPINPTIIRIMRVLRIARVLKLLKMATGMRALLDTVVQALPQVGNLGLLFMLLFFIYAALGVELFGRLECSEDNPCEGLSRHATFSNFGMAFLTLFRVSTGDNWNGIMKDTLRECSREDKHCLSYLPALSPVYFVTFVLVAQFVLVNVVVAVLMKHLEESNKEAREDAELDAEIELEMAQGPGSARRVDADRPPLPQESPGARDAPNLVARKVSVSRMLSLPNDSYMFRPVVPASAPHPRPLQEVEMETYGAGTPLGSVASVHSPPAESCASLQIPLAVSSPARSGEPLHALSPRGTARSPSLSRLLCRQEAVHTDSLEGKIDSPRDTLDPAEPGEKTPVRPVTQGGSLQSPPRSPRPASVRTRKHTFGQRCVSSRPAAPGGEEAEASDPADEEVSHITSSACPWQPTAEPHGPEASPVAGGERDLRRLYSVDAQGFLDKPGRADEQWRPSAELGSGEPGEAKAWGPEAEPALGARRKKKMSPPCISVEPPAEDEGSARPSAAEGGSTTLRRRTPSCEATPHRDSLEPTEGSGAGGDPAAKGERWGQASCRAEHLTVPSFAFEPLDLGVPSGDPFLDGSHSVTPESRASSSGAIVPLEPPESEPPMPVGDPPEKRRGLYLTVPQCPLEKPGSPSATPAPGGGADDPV", "assay_type": "functional"}, "Bcl-2-like protein 10": {"molecular_target": "Bcl-2-like protein 10 (Homo sapiens, UniProt Q9HD36)", "sequence (Q9HD36 whole entry)": "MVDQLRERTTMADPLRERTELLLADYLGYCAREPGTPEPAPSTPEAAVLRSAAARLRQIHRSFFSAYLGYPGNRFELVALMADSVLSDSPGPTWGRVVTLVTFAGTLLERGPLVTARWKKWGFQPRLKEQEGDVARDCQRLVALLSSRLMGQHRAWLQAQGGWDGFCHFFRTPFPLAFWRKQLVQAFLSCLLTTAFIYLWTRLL", "experiment": "Bcl-B/TR3 peptide binding disruption – biochemical, fluorescence polarization, FITC-TR3 peptide, selectivity assay for Bfl-1 inhibitor project, primary screen (AID 748);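 note: fluorescence polarization from a fluorescein-labelled TR3 peptide binding purified Bcl-B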"}, "[14]": {"molecular_target": "DNA dC->dU-editing enzyme APOBEC-3G (Homo sapiens, UniProt Q9HC16)", "sequence (Q9HC16 whole entry)": "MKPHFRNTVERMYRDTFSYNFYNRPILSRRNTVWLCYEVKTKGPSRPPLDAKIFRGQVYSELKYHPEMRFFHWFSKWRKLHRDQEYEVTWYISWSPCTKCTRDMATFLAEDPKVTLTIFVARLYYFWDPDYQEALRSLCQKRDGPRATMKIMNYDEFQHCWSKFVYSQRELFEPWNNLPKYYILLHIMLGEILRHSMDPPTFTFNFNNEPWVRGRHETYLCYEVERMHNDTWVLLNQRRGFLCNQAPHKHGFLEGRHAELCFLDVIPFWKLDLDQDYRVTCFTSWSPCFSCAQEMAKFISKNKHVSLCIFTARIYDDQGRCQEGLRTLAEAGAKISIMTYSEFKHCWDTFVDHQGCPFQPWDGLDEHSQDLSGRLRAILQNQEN", "experiment": "Dose Response confirmation of small molecule APOBEC3G DNA Deaminase Inhibitors via a fluorescence-based single-stranded DNA deaminase assay. [Related pubchem assays (depositor defined):AID493012, AID493028]", "assay_type": "functional"}, "[15]": {"molecular_target": "T5, Polyadenylate-binding protein 1 (Homo sapiens, UniProt P11940)", "T5 sequence (P11940 whole entry)": "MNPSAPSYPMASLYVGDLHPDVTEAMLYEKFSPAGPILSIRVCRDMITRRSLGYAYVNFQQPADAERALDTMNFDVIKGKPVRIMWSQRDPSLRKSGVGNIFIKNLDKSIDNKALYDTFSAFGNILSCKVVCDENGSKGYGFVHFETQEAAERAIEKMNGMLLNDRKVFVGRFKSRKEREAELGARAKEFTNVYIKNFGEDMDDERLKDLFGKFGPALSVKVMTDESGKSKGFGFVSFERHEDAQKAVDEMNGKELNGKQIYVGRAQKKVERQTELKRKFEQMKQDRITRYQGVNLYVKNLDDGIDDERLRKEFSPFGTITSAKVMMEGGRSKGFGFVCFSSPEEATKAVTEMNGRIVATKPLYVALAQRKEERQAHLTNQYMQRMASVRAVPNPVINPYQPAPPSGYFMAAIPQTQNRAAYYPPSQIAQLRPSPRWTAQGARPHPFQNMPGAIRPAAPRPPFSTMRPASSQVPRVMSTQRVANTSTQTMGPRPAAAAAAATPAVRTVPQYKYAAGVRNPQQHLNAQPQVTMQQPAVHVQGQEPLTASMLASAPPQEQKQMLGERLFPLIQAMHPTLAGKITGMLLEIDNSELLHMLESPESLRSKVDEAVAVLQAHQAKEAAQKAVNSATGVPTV", "experiment": "MLLE binding blockers, Cy5 peptide tracer – biochemical, fluorescence polarization, Cy5-PAM2 peptide, secondary, miRNA deadenylation inhibitor project, dose response (AID 602260)", "assay_type": "functional", "details": "read-out: IC50_Mean"}, "[16]": {"molecular_target": "T5, Polyadenylate-binding protein 1", "experiment": "MLLE domain peptide-binding blockers, IC50 – biochemical, fluorescence polarization, FITC-PAM2 peptide, dose response (AID 602259)", "assay_type": "functional", "details": "read-out: IC50_Mean"}, "X-box-binding protein 1": {"molecular_target": "X-box-binding protein 1 (Homo sapiens, UniProt P17861)", "sequence (P17861 whole entry)": "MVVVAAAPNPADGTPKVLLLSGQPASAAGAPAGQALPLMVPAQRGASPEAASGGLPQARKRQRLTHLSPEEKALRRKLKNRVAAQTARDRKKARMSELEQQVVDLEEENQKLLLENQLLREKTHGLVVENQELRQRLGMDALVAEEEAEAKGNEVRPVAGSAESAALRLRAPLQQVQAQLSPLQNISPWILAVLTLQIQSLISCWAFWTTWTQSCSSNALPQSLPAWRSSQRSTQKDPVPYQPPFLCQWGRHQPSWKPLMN", "assay_type": "functional, Cricetulus griseus"}, "[17]": {"molecular_target": "Beta-2 adrenergic receptor (Homo sapiens, UniProt P07550)", "sequence (P07550 whole entry)": "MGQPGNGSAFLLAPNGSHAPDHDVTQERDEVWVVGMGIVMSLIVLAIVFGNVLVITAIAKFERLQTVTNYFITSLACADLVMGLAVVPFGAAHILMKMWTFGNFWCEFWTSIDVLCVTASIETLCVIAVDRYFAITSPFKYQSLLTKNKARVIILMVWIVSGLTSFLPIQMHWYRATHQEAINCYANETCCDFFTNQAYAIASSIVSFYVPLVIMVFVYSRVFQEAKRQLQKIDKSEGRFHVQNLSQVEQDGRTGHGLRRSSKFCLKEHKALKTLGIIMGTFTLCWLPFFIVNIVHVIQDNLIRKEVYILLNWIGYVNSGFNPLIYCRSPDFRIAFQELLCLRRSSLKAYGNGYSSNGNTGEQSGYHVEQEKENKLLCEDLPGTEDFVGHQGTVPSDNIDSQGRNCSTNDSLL", "experiment": "ADRB2 activation measured by internalization – cell-based, FAP fluorogen, flow cytometry, cherry pick 1, dose response (AID 588763)", "assay_type": "functional"}}, "note": "Calls of active or inactive are those of the source.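 Throughout, for Absolute IC50 (XBP1): confirmatory dose-response counter-screen serving a CHOP assay.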"}
{"smiles": "Clc1ccc(CSC(Cn2ccnc2)c2ccc(Cl)cc2Cl)cc1", "note": "(stereo not given) [SULCONAZOLE NITRATE]", "values": [{"measurement": "EC50", "setting": "[1]", "result": "60.3 µM (not active)"}, {"measurement": "EC50", "setting": "[2]", "result": "7.1 µM (active)"}, {"measurement": "EC50", "setting": "[3]", "result": "8.21 µM (active)"}, {"measurement": "AC50", "setting": "[4]", "result": "3.52 µM (active)"}, {"measurement": "AC50", "setting": "[5]", "result": "0.294 µM (active)"}, {"measurement": "EC50", "setting": "Protein RecA", "result": "9.78 µM (active)"}, {"measurement": "IC50", "setting": "[6]", "result": "> 40 µM (inactive)"}, {"measurement": "IC50", "setting": "[7]", "result": "21 µM (inactive)"}]}
{"smiles": "COc1ccc(OCC(=O)Nc2ccc3c(c2)C(=O)NC3=O)cc1", "values": [{"measurement": "IC50", "setting": "[8]", "result": "> 43.8 µM (not active)"}, {"measurement": "IC50", "setting": "[9]", "result": "> 43.8 µM (not active)"}]}
{"smiles": "CCc1nnc(NC(=O)CSc2nnc(C3CCCCC3)n2-c2cccc(Cl)c2)s1", "values": [{"measurement": "EC50", "setting": "[10]", "result": "> 120 µM (not active)"}, {"measurement": "EC50", "setting": "[11]", "result": "> 120 µM (not active)"}, {"measurement": "EC50", "setting": "[12]", "result": "> 120 µM (not active)"}, {"measurement": "EC50", "setting": "[13]", "result": "7.01 µM (active)"}]}
{"smiles": "Cc1cc(C)c(NC(=O)c2cc3c(nc4sccn43)s2)c(C)c1", "values": [{"measurement": "IC50", "setting": "Bcl-2-like protein 10", "result": "> 100 µM (inactive)"}]}
{"smiles": "O=C(Nc1ccc(N2CCOCC2)c(S(=O)(=O)Nc2ccc(Cl)cc2)c1)c1cnccn1", "values": [{"measurement": "IC50", "setting": "[14]", "result": "51.6 µM (active)"}, {"measurement": "IC50", "setting": "[15]", "result": "> 66 µM (inactive)"}, {"measurement": "IC50", "setting": "[16]", "result": "> 66 µM (inactive)"}]}
{"smiles": "CCN(CCO)c1ncnc2c1sc1nc(CC(C)C)c3c(c12)CC(C)(C)OC3", "values": [{"measurement": "Absolute IC50 (XBP1)", "setting": "X-box-binding protein 1", "result": 10, "unit": "µM"}, {"measurement": "EC50", "setting": "[17]", "result": "0.0454 µM (active)"}]}
